Each structure is given as a SMILES string.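 Tested at 5 concentrations; 48 h exposure; 96-well plates; endpoints linearly interpolated, else capped at highest concentration. At the TGI there is no net growth.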

Our source for the TGI values is PubChem BioAssay (NCI).

Test systems include SF-268 CNS; MALME-3M melanoma; HOP-62 NSCLC; SK-MEL-2 melanoma; HS 578T breast; COLO 205 colon; OVCAR-4 ovarian; BT-549 breast; OVCAR-5 ovarian; UACC-62 melanoma.
What all share (experiment): DTP human tumour cell line panel, 48 h

As to `CC(C)[Si](OC/C(=C/COC(C)(C)C)[C@H]1CC=C(C(=O)c2ccccc2N2CN(C)C(=O)N(C)C2)C1)(C(C)C)C(C)C`, the concentration for total growth inhibition (TGI) with SF-268 CNS worked out at 17.3 µM; with MALME-3M melanoma it was 21.4 µM; in the assay on HOP-62 NSCLC it was 31.5 µM; in the assay on SK-MEL-2 melanoma, 28.9 µM; in the assay on HS 578T breast, 13.2 µM; with COLO 205 colon, 31 µM. Besides, the TGI with OVCAR-4 ovarian worked out at 39.3 µM; in the assay on BT-549 breast, 26.5 µM; in the assay on OVCAR-5 ovarian, 28.7 µM; in the assay on UACC-62 melanoma, 23.3 µM.

As to `c1ccc(C2CC(=NC3CCCCC3)Nc3ccccc3N2)cc1` (stereo not given), the total growth inhibition concentration (TGI) with SF-268 CNS is over 100 µM; in the assay on MALME-3M melanoma it was 50.1 µM; in the assay with HOP-62 NSCLC, over 100 µM; in the assay with SK-MEL-2 melanoma, over 100 µM; with HS 578T breast, 94.8 µM; with COLO 205 colon it was over 100 µM. Also, the TGI in the assay with OVCAR-4 ovarian, in the assay on BT-549 breast, with OVCAR-5 ovarian and in the assay with UACC-62 melanoma was over 100 µM in each case.

`CN(C)c1ccc(Cc2cc3c(O)ccc(O)c3cc(Cc3ccc(N(C)C)cc3)c2=O)cc1`: the TGI in the assay on SF-268 CNS is over 77.5 µM; with MALME-3M melanoma, 45.4 µM; in the assay with HOP-62 NSCLC it was over 100 µM; in the assay with SK-MEL-2 melanoma it was over 68.9 µM; with HS 578T breast, 97.9 µM; in the assay with COLO 205 colon, 36.6 µM. Also, the TGI was 39.5 µM in the assay with OVCAR-4 ovarian, 32.2 µM in the assay on BT-549 breast, over 70 µM with OVCAR-5 ovarian and 65.9 µM in the assay with UACC-62 melanoma.

For the molecule `O=C1C=CC(=O)C(CNc2ccc(C(=O)OCc3ccccc3)cc2)=C1`, the TGI in the assay on SF-268 CNS came out at 21.8 µM; in the assay on MALME-3M melanoma it was 7.22 µM; in the assay with HOP-62 NSCLC, 33 µM; in the assay on SK-MEL-2 melanoma it was 30 µM; in the assay with HS 578T breast, 55.4 µM; in the assay on COLO 205 colon, 3.79 µM. Further, the concentration for total growth inhibition (TGI) in the assay on OVCAR-4 ovarian amounted to 10.4 µM; with BT-549 breast, 9.31 µM; with OVCAR-5 ovarian, 29.5 µM; in the assay on UACC-62 melanoma, 22.6 µM.

For `CCOP(=O)(OCC)OC1CC(n2cc(C)c(=O)n(C)c2=O)OC1CO[Si](C)(C)C(C)(C)C` (stereo not given), the TGI with SF-268 CNS, in the assay on MALME-3M melanoma, in the assay on HOP-62 NSCLC, in the assay with SK-MEL-2 melanoma, in the assay with HS 578T breast and in the assay with COLO 205 colon was over 100 µM each time. Also, the TGI in the assay on OVCAR-4 ovarian, in the assay on BT-549 breast, in the assay on OVCAR-5 ovarian and in the assay with UACC-62 melanoma was over 100 µM each time.

`CCOC(=O)c1sc2ncnc(N)c2c1C`: the TGI in the assay on SF-268 CNS, in the assay on MALME-3M melanoma, with HOP-62 NSCLC, in the assay with SK-MEL-2 melanoma, in the assay on HS 578T breast and in the assay on COLO 205 colon was over 100 µM each time. Moreover, the TGI in the assay with OVCAR-4 ovarian, with BT-549 breast, with OVCAR-5 ovarian and in the assay on UACC-62 melanoma was over 100 µM in each case.

For `COc1cc(C(O)c2ccc3c(c2)OCO3)cc(OC)c1OC` (stereo not given), the TGI in the assay on SF-268 CNS, in the assay with MALME-3M melanoma, in the assay with HOP-62 NSCLC, in the assay with SK-MEL-2 melanoma, with HS 578T breast and in the assay on COLO 205 colon was over 100 µM each time. Moreover, the TGI in the assay on OVCAR-4 ovarian, with BT-549 breast, in the assay on OVCAR-5 ovarian and with UACC-62 melanoma was over 100 µM each time.

Regarding `C(=C\c1ccccc1)/COc1ccccc1C(N1CCOCC1)n1nc2ccccc2n1` (stereo not given), the concentration for total growth inhibition (TGI) was 28.5 µM with SF-268 CNS; 14.4 µM in the assay on MALME-3M melanoma; 20.4 µM with HOP-62 NSCLC; 24.2 µM with SK-MEL-2 melanoma; 41.2 µM with HS 578T breast; 36.6 µM in the assay on COLO 205 colon. Also, the total growth inhibition concentration (TGI) in the assay on OVCAR-4 ovarian was determined as 57.9 µM; in the assay with BT-549 breast it was 26.4 µM; with OVCAR-5 ovarian, 44.9 µM; in the assay with UACC-62 melanoma it was 16.4 µM.

As for `O=C1c2cccc(O)c2C(=O)c2c(OC3OC(CO)C(O)C(O)C3O)cccc21` (stereo not given), the concentration for total growth inhibition (TGI) was 67.6 µM in the assay on SF-268 CNS; 20.9 µM with MALME-3M melanoma; over 100 µM in the assay on HOP-62 NSCLC; over 100 µM in the assay on SK-MEL-2 melanoma; 58.1 µM in the assay on HS 578T breast; 39.2 µM in the assay with COLO 205 colon. Also, the TGI in the assay on OVCAR-4 ovarian was 32.1 µM; in the assay with BT-549 breast, 93.3 µM; in the assay on OVCAR-5 ovarian, over 100 µM; in the assay with UACC-62 melanoma it was over 100 µM.

Take `C=CC(=O)N1C/C(=C\c2ccc(Cl)cc2)C(=O)/C(=C/c2ccc(Cl)cc2)C1`: the TGI in the assay on SF-268 CNS turned out to be 0.617 µM; in the assay on MALME-3M melanoma it was 3.84 µM; in the assay on HOP-62 NSCLC it was 1.02 µM; in the assay with SK-MEL-2 melanoma, 2.85 µM; in the assay with HS 578T breast, 1.36 µM; with COLO 205 colon, 0.719 µM. The TGI came out at 1.22 µM in the assay with OVCAR-4 ovarian, 1.09 µM with BT-549 breast, 2.1 µM in the assay on OVCAR-5 ovarian and 1.02 µM with UACC-62 melanoma.

One may read the TGI as the concentration at which net growth stops. A low value points to greater sensitivity of the cells.
